Laboratory results taken from patent US5482948A, “Pyridyl derivatives and pharmaceutical compositions comprising these compounds” (Dr. Karl Thomae GmbH, priority 1991, dated 1996).

How the values were obtained:
[1] = test system: thrombocyte aggregation; assay: Antithrombotic activity: collagen-induced aggregation in platelet-rich plasma (Born and Cross); format: cell-based; details: Homo sapiens, 10 min; platelet-rich plasma from healthy volunteers; incubated 10 minutes at 37° C.; 50% change in optical density; read-out: Inhibition of collagen-induced aggregation EC50
Experimental: The thrombocyte aggregation is measured using the method of Born and Cross (J. Physiol. 170, 397 (1964)) in platelet-rich plasma taken from healthy volunteers. To inhibit coagulation, the blood is mixed with 3.14% strength sodium citrate in a ratio by volume of 1:10.
Collagen-induced Aggregation
The pattern of decrease in the optical density of the platelet suspension is photometrically measured and recorded after the addition of the aggregation-triggering substance. The rate of aggregation is concluded from the angle of inclination of the density curve. The point on the curve where there is greatest light transmittance is used to calculate the "optical density".
The quantity of collagen used is as little as possible but sufficient to produce an irreversible reaction curve. Standard commercial collagen produced by Hormonchemie of Munich is used. Before the addition of the collagen the plasma is incubated for 10 minutes with the substance at 37° C.
From the measurements obtained an EC50 is determined by plotting a graph, and indicates a 50% change in the "optical density" in terms of the inhibition of aggregation.

[2] = target: T1, thromboxane synthetase (Homo sapiens, UniProt P24557); assay: Inhibitory effect on thromboxane synthetase (TXB2 formation in human platelet suspension); format: cell-based; details: 10 minutes at ambient temperature, then 14C-labelled arachidonic acid 10 minutes, read-out: Inhibition of thromboxane synthetase IC50
T1 construct: endogenous in cells; host or cells: human platelets (platelet-rich plasma passed through Sepharose 2B)
T1 sequence (P24557 1-533): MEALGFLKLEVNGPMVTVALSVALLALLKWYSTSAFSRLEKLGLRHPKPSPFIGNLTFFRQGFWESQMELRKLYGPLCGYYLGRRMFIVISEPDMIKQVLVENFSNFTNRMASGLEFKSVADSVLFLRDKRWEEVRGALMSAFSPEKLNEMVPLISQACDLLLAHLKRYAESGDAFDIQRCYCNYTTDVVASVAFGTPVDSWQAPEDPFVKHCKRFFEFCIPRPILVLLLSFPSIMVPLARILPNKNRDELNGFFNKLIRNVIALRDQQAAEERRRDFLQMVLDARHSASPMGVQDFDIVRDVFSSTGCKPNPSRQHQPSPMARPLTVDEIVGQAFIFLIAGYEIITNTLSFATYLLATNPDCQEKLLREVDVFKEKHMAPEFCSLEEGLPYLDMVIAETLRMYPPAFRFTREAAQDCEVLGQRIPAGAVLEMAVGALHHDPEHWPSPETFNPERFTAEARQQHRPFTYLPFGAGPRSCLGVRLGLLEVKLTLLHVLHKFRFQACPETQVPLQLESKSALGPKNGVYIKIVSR
Experimental: Determining the Inhibitory Effect on Thromboxane Synthetase
Venous human blood is anti-coagulated with 13 mM Na3 citrate and centrifuged for 10 minutes at 170×g. The supernatant platelet-rich plasma is passed through a Sepharose 2B column in order to remove the plasma proteins. Aliquots of the platelet suspension obtained are incubated with the test substance or with a solvent as control for 10 minutes at ambient temperature and after the addition of ^14 C-labelled arachidonic acid incubation is continued for a further 10 minutes. After this has been stopped with 50 μl of citric acid, extraction is carried out 3 times with 500 μl of ethyl acetate and the combined extracts are distilled off with nitrogen. The residue is taken up in ethyl acetate, placed on TLC film and separated with chloro-form:methanol:glacial acetic acid:water (90:8:1:0.8, v/v/v/v). The dried TLC films are placed on X-ray film for 3 days, the autoradiograms were developed and the active zones were marked on the film using the autoradiograms. After cutting out, the activity is measured in a scintillation counter and the inhibition of the formation of TXB2 is calculated. The IC50 is determined by linear interpolation.

[3] = target: T2, Thromboxane (Homo sapiens, UniProt P21731); assay: Thromboxane-antagonistic activity (displacement of 3H-labelled ligand on human platelets); format: binding; details: human platelet suspension, 60 minutes at ambient temperature
T2 construct: endogenous in cells; host or cells: human platelets (platelet-rich plasma passed through Sepharose 2B)
T2 sequence (P21731 1-343): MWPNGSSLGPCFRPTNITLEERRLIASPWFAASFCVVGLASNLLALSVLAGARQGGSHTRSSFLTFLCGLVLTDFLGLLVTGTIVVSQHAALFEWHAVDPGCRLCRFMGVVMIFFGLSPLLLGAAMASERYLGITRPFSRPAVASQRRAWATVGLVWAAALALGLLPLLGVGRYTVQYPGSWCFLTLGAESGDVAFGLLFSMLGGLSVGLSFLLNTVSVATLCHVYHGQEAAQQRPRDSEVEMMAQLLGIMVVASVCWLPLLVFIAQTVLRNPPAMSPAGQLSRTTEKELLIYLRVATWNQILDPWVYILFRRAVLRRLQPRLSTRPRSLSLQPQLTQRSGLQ
Experimental: Thromboxane-antagonistic Activity
Venous human blood is anti-coagulated with 13 mM Na3 citrate and centrifuged for 10 minutes at 170×g. The supernatant platelet-rich plasma is passed through a Sepharose 2B column in order to remove the plasma proteins. Aliquots of the platelet suspension obtained are incubated with the test substance, the ligand (^3 H-labelled) and a marker (^14 C-labelled) for 60 minutes at ambient temperature and then centrifuged for 20 seconds at 10,000×g. The supernatant is removed and the pellet is dissolved in NaOH. The ^3 H activity in the supernatant corresponds to the free ligand, ^14 C gives the concentration of the marker. ^3 H in the pellet corresponds to the bound ligand whilst ^14 C is used to correct for the ligand in the extracellular space. After the process has been repeated, the displacement curve is determined from the binding values for different concentrations of the test substance and the IC50 is determined.

| SMILES | EC50 [1] | IC50 [2] | IC50 [3] |
| --- | --- | --- | --- |
| N#CN=C(Nc1cccc(/C(=C\CCCC(=O)O)c2cccnc2)c1)NC1CCCC1 [C, 5E-6-(3-(2-cyano-3-cyclopentyl-guanidino)phenyl)-6-(3-pyridyl)hex-5-enoicacid] | 530 nM | 3 nM | 30 nM |
| N#CN=C(Nc1cccc(/C(=C\CCCn2cnnn2)c2cccnc2)c1)NC1CCCC1 [Y, 4E-1-(5-(3-(2-cyano-3-cyclopentyl-guanidino)phenyl)-5-(3-pyridyl)-pent-4-enyl)tetrazole] | 1200 nM | 250 nM | 21 nM |
| CC(C)(C)CNC(Nc1cccc(/C(=C\CCCC(=O)O)c2cccnc2)c1)=C(C#N)C#N [N, 5E-6-(3-(2,2-dicyano-1-neopentylaminoethyleneamino)phenyl)-6-(3-pyridyl)hex-5-enoic acid] | 620 nM | 44 nM | 3 nM |
| CCCNC(Nc1cccc(/C(=C\CCCC(=O)O)c2cccnc2)c1)=C(C#N)C#N [P, 5E-6-(3-(2,2-dicyano-1-propylamino-ethyleneamino)phenyl)-6-(3-pyridyl)hex-5-enoic acid] | 50 nM | 40 nM | 37 nM |
| CC(C)(C)NC(Nc1cccc(/C(=C\CCCC(=O)O)c2cccnc2)c1)=C(C#N)C#N [Q, 5E-6-(3-(2,2-dicyano-1-tert.butylaminoethyleneamino)phenyl)-6-(3-pyridyl)hex-5-enoic acid] | 120 nM | 50 nM | 50 nM |
| N#CN=C(Nc1cccc(/C(=C\CCCC(=O)O)c2cccnc2)c1)NC1CC1 [A, 5E-6-(3-(2-cyano-3-cyclopropyl-guanidino)phenyl)-6-(3-pyridyl)hex-5-enoicacid] |  | 380 nM | 17 nM |
| N#CN=C(Nc1ccc(/C(=C\CCCC(=O)O)c2cccnc2)cc1)NC1CCCCC1 [R, 5E-6-(4-(2-cyano-3-cyclohexyl-guanidino)phenyl)-6-(3-pyridyl)hex-5-enoic acid] | 31000 nM | 180 nM | 1300 nM |
| CC(C)CNC(=NS(N)(=O)=O)Nc1cccc(/C(=C\CCCC(=O)O)c2cccnc2)c1 [W, 5E-6-(3-(2-amidosulphonyl-3-(2-methylpropyl)guanidino)phenyl)-6-(3-pyridyl)hex-5-enoic acid] | 12000 nM | 2700 nM | 600 nM |
| CC(C)CNC(Nc1cccc(/C(=C\CCCC(=O)O)c2cccnc2)c1)=C(C#N)C(N)=O [X, 5E-6-(3-(2-carbamoyl-2-cyano-1-(2-methylpropylamino)-ethyleneamino)phenyl)-6-(3-pyridyl)hex-5-enoic acid] | 31000 nM | 5 nM | 380 nM |
| N#CC(C#N)=C(Nc1cccc(/C(=C\CCCC(=O)O)c2cccnc2)c1)NC1CC1 [O, 5E-6-(3-(2,2-dicyano-1-cyclopropylaminoethyleneamino)phenyl)-6-(3-pyridyl)hex-5-enoic acid] | 40 nM | 65 nM | 62 nM |
| CC(C)CNC(Nc1cccc(/C(=C\CCCC(=O)O)c2cccnc2)c1)=C(C#N)C#N [J, 5E-6-(3-(2,2-dicyano-1-(2-methylpropylamino)ethyleneamino)phenyl)-6-(3-pyridyl)hex-5-enoic acid] | 120 nM | 30 nM | 2 nM |
| CC(C)(C)NC(=NC#N)Nc1cccc(C(CCCCC(=O)O)c2cccnc2)c1 (stereo not drawn) [S, 6-(3-(2-cyano-3-tert.butyl-guanidino)phenyl)-6-(3-pyridyl)hexanoic acid] | 1100 nM | 37 nM | 120 nM |
| CC(C)CCNC(Nc1cccc(/C(=C\CCCC(=O)O)c2cccnc2)c1)=C(C#N)C#N [L, 5E-6-(3-(2,2-dicyano-1-(3-methylbutylamino)ethyleneamino)phenyl)-6-(3-pyridyl)hex-5-enoic acid] | 1200 nM | 31 nM | 15 nM |
| CC(C)CCNC(=NC#N)Nc1cccc(/C(=C\CCCC(=O)O)c2cccnc2)c1 [Example I, 5E-6-(3-(2-cyano-3-(3-methylbutyl)guanidino)phenyl)-6-(3-pyridyl)hex-5-enoic acid] | 690 nM | 3 nM | 27 nM |
| CC(C)(C)CNC(=NC#N)Nc1cccc(/C(=C\CCCC(=O)O)c2cccnc2)c1 [G, 5E-6-(3-(2-cyano-3-neopentyl-guanidino)phenyl)-6-(3-pyridyl)hex-5-enoic acid] | 260 nM | 14 nM | 22 nM |
| CC(C)NC(Nc1cccc(/C(=C\CCCC(=O)O)c2cccnc2)c1)=C(C#N)C#N [K, 5E-6-(3-(2,2-dicyano-1-isopropylaminoethyleneamino)phenyl)-6-(3-pyridyl)hex-5-enoic acid] | 20 nM | 45 nM | 2 nM |
| CC(C)CNC(=NC#N)Nc1cccc(/C(=C\CCCC(=O)O)c2cccnc2)c1 [F, 5E-6-(3-(2-cyano-3-(2-methylpropyl)guanidino)phenyl)-6-(3-pyridyl)hex-5-enoic acid] | 350 nM | 30 nM | 7 nM |
| N#CN=C(Nc1cccc(/C(=C\CCCC(=O)O)c2cccnc2)c1)N[C@@H]1C[C@H]2CC[C@@H]1C2 (relative stereo) [E, 5E-6-(3-(2-cyano-3-(exo-norborn-2-yl)guanidino)phenyl)-6-(3-pyridyl)hex-5-enoic acid] | 750 nM | 4 nM | 17 nM |
| CCCCCNC(=NC#N)Nc1cccc(/C(=C\CCCC(=O)O)c2cccnc2)c1 [H, 5E-6-(3-(2-cyano-3-pentyl-guanidino)phenyl)-6-(3-pyridyl)hex-5-enoic acid] | 640 nM | 5 nM | 25 nM |
| N#CC(C#N)=C(Nc1cccc(/C(=C\CCCC(=O)O)c2cccnc2)c1)NC1CCCC1 [M, 5E-6-(3-(2,2-dicyano-1-cyclopentylaminoethyleneamino)-phenyl)-6-(3-pyridyl)hex-5-enoic acid] | 50 nM | 33 nM | 1 nM |
| CC(C)NC(=NC#N)Nc1cccc(/C(=C\CCCC(=O)O)c2cccnc2)c1 [D, 5E-6-(3-(2-cyano-3-isopropyl-guanidino)phenyl)-6-(3-pyridyl)hex-5-enoic acid] |  | 24 nM | 18 nM |
| CC(C)(C)NC(=NC#N)Nc1cccc(/C(=C\CCCC(=O)O)c2cccnc2)c1 [B, 5E-6-(3-(2-cyano-3-tert.butyl-guanidino)phenyl)-6-(3-pyridyl)hex-5-enoic acid] | 500 nM |  | 11 nM |
